This is an account of results in patent US20040253261A1, “Biological compositions and methods for treatment of pancreatic cancer” (priority 2003, published 2004).

For data set [1], the system named is pancreatic cancer tumor cells. To be noted: for Number of live animals remaining in the groups after 30 days of treatment: 30 mice per group. How it is done: (§1) The survival time of mice after tumor injection and treatment was studied.
(§2) The biological composition comprising 10^8 cells per ml of activated and conditioned yeast cells of the strain Saccharomyces cerevisiae Hansen strain IFFI 1413 was prepared by the methods described in Section 5.1 and subsections therein.
The animals were prepared in a similar manner as described in Section 6.1.
The mice injected with tumor cells were divided into 4 experimental groups of ten mice per group and one control group. The four experimental groups were triplicated (i.e., using a total of 120 mice in the experimental groups). In group 2AY, the mice received 0.3 ml of the biological composition once per day. In group 2NY, the mice received 0.3 ml of the untreated yeast cells once per day. In group 2VDS, the mice were injected intravenously with 3 mg of vindesine (VDS) per kg body weight once a week for four weeks. In group 2CK1, the mice received 0.3 ml of physiological saline once per day.
The mice received the biological compositions, untreated yeast cells, VDS or saline on the same day as the tumor cells were transplanted. The mice in group 2CK2 also started receiving saline on the same day as the other four groups. The biological compositions, untreated yeast cells and saline were administered orally by a feeding tube and the VDS by intravenous injection for 30 consecutive days. The mice were observed over 6 months from the day of tumor inoculation and survival was recorded. The weight of the mice as well as the weight of the tumor were determined by standard techniques.

The subject of data set [2] is mouse pancreatic cancer cell line MPC-83. The data set is described as follows: kun ming mouse model of pancreatic cancer (MPC-83), growth of tumors. To be noted: MPC-83-bearing kun ming mice, 30 consecutive days of treatment, sacrificed on 31st day from tumor inoculation. The protocol: as §2
The mice injected with tumor cells were kept for 5 days and were divided into 4 experimental groups of ten mice per group and one control group. The four experimental groups were triplicated (i.e., using a total of 120 mice in the experimental groups).
The mice received the biological compositions, untreated yeast cells, MMC or saline on the same day as the tumor cells were transplanted. The mice in group CK2 also started receiving saline on the same day as the other four groups. The biological compositions, untreated yeast cells and saline were administered orally by a feeding tube and the MMC by intravenous injection for 30 consecutive days.

For data set [3] the test system is unchanged. To be noted: for Number of live animals remaining in the groups after 30 days of treatment: 30 mice per group. How it is done: as §1
The biological composition comprising 10^8 per ml of activated and conditioned yeast cells of the strain Saccharomyces cerevisiae Hansen strain IFFI 1413 was prepared by the methods described in Section 5.1 and subsections therein.
The animals were prepared in a similar manner as described in Section 8.1.
The mice injected with tumor cells were kept for 5 days and were divided into 4 experimental groups of ten mice per group and one control group. The four experimental groups were triplicated (i.e., using a total of 120 mice in the experimental groups). In group 2AY, the mice received 0.5 ml of the biological composition once per day. In group 2NY, the mice received 0.5 ml of the untreated yeast cells once per day. In group 2MMC, the mice were injected intravenously with 1.5×10^5 units of mitomycin C (MMC) per kg body weight per day. In group 2CK1, the mice received 0.5 ml of physiological saline once per day.
The mice received the biological compositions, untreated yeast cells, MMC or saline on the same day as the tumor cells were transplanted. The mice in group 2CK2 also started receiving saline on the same day as the other four groups. The biological compositions, untreated yeast cells and saline were administered orally by a feeding tube and the MMC by intravenous injection for 30 consecutive days. The mice were observed over 6 months from the day of tumor inoculation and survival was recorded. The weight of the mice as well as the weight of the tumor were determined by standard techniques.

Data set [4] deals with pancreatic cancer tumor cells. The data set is described as follows: BALB/c mouse model of human pancreatic cancer, growth of tumors. To be noted: tumor-bearing BALB/c mice, 30 consecutive days of treatment, sacrificed on 31st day from tumor inoculation. How it is done: as §2
The mice injected with tumor cells were divided into 4 experimental groups of ten mice per group and one control group. The four experimental groups were triplicated (i.e., using a total of 120 mice in the experimental groups).
The mice in group CK2 also started receiving saline on the same day as the other four groups. The biological compositions, untreated yeast cells and saline were administered orally by a feeding tube and the VDS by intravenous injection for 30 consecutive days.

[5] abbreviates: 0 month after cessation of treatment.
Setting [6] is: 1 month after cessation of treatment.
The mark [7] stands for this setting: 2 months after cessation of treatment.
Setting [8] is: 3 months after cessation of treatment.
[9] abbreviates: 4 months after cessation of treatment.
Where [10] appears, read: 5 months after cessation of treatment.
Where [11] appears, read: 6 months after cessation of treatment.
[12] abbreviates: mice that survived, observed over 6 months from tumor inoculation.

Where two headings read alike, the source gives them in different places.

As for `CC[C@]1(O)C[C@@H]2CN(CCc3c([nH]c4ccccc34)[C@@](C(=O)OC)(c3cc4c(cc3OC)N(C)[C@H]3[C@@](O)(C(N)=O)[C@H](O)[C@]5(CC)C=CCN6CC[C@]43[C@@H]65)C2)C1` [Group 2VDS, vindesine], the “Number of live animals remaining in the groups after 30 days of treatment” value (“Number of live animals remaining” below) in data set [1] (setting [5]) is on record as 30; in data set [1] (setting [6]), 30; in data set [1] (setting [7]) it was 27; in data set [1] (setting [8]), 27; in data set [1] (setting [9]), 11; in data set [1] (setting [10]), 0. Further, the “Number of live animals remaining” value in data set [1] (setting [11]) was 0. In addition, the “survival time of mice bearing pancreatic cancer cells” value in data set [1] (BALB/c mice, 30 days of treatment, from injection of tumor cells) was “all died after four months”. The “mean weight of mice and standard deviation” value in data set [1] (setting [12]) is on record as “all animals dead”. Also, in data set [1] (setting [12]), the “mean weight of tumor nodules and standard deviation” value is listed as “all animals dead”.

Consider `CO[C@@]12[C@H](COC(N)=O)C3=C(C(=O)C(C)=C(N)C3=O)N1C[C@@H]1N[C@@H]12` [Group MMC, mitomycin C], for which the entries for the “mean weight of mice and standard deviation” value in data set [2], in data set [3] (setting [12]) and in data set [4] were 18.3 ± 1.5 g, “all animals dead” and 18.9 ± 3.4 g, respectively. Moreover, the entries for the “mean weight of tumor nodules and standard deviation” value in data set [2], in data set [3] (setting [12]) and in data set [4] were 2.8 ± 1.2 g, “all animals dead” and 1.37 ± 0.7 mg, respectively. In addition, the “Number of live animals remaining” value is on record as 30 in data set [3] (setting [5]); 27 in data set [3] (setting [6]); 21 in data set [3] (setting [7]); 7 in data set [3] (setting [8]); 0 in data set [3] (setting [9]); 0 in data set [3] (setting [10]). Further, the “Number of live animals remaining” value in data set [3] (setting [11]) was found to be 0. Moreover, in data set [3] (kun ming mice, 30 days of treatment, from injection of tumor cells), the “survival time of mice bearing pancreatic cancer cells” value was “all died after four months”.
